Measurements reported in patent US20060171944A1, “N-formyl peptide receptor mediation of platelet chemotaxis toward injured cells and activation of immune response” (priority 2002, published 2006).

Legend:
[1] = biological target: T1, platelet FPR (Homo sapiens, UniProt P21462); assay: Inhibition of platelet chemotaxis to fMLF in transwell migration assay; assay type: cell-based; details: 1 U and 10 U; non-activated and thrombin-activated platelets; P<0.001
T1 construct: endogenous in cells
T1 sequence (P21462 1-350): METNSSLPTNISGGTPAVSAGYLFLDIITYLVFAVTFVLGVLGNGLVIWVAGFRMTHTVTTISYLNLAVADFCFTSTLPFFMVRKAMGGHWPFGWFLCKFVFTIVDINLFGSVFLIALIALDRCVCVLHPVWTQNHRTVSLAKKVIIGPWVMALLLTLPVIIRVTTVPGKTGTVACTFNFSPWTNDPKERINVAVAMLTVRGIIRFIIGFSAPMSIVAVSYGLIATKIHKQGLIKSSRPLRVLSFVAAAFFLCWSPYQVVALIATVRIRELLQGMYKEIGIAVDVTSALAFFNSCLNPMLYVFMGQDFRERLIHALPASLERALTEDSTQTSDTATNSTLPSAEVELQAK
Procedure: In order to further confirm the specificity of the chemotactic response to N-formyl peptide binding of the FPR, platelet FPR was inhibited by several methods to establish its functional requirement for platelet chemotaxis. Platelets were pretreated with an FPR-specific antibody (α-FPR) capable of blocking the binding of N-formyl peptides to the FPR receptor, prior to the transwell migration assay. […] Additionally, platelets were treated with pertussis toxin, a specific inhibitor of the a-subunit of members of the Gi/o class of G-proteins required for FPR activation.
Platelet migration was assessed using a 96-well ChemoTx® microplate (Neuro Probe, Gaithersburg Md.). For all chemotaxis experiments, different concentrations of stimulants were placed in the bottom wells of the microplate and the filter was positioned (2 μm pore size). The cell suspension was seeded onto the top of the filter (30 μl) and the microplates were incubated for 2 hrs at 37° C. For all chemokinesis experiments, different concentrations of stimulants were placed in the bottom wells of the microplate and the filter was positioned. […] The filter was then carefully removed and the migrated cells were counted by light microscopy. Results are expressed as the mean value (±SD) of total migrated cells, in triplicate samples, and are taken from five experiments independent.

[2] = test system: human platelets; assay: Platelet chemotaxis toward ischemic/reperfused human aortic endothelial cells; assay type: cell-based; details: thrombin-activated platelets
Procedure: Primary human aortic endothelial cells were plated in 0.2% gelatin (Sigma) coated 96-well ChemoTx microplates and allowed to recover for 48 hours. Before the plate was placed in the modular incubator chamber (Billups-Rothenberg Inc.; Del Mar, Calif.) the media was replaced with serum-free media containing 10 mM Hepes. The plate was placed on ice and put into the air tight modular incubator chamber and flushed with a gas mixture of 5% CO2 and 95% N2 for 90 min to induce ischemia. The cell culture was then returned to a normoxic environment of atmospheric air/5% CO2 to simulate reperfusion, and allowed to recover for 4 hours in a cell culture incubator. Chemotaxis experiments were then performed.
In particular, studies were performed to determine whether endogenous danger signals released by tissues undergoing ischemia/reperfusion cell injury induced platelet chemotaxis. Primary human aortic cells, plated in a 96-well ChemoTx plate NeuroProbeInc. Gaithersburg, Md. were placed on ice and put into an air tight modular incubator chamber that was flushed with a gas mixture of 5% CO2 and 95% N2 for 90 min to induce ischemia. The cell culture was then returned to a normoxic environment of atmospheric air/5% CO2 and allowed to recover for 4 hours in a cell culture incubator at 37° C.

pertussis toxin
effect of platelet treatment with pertussis toxin on migration to fMLF [1]: significantly decreased migration
effect of platelet treatment on chemotaxis toward ischemic aortic endothelial cells [2]: decreased chemotaxis
